Data reported in the NIST ThermoML archive (doi:10.1021/acs.jced.8b00132).
Several values for one entry are separate records, joined by “and”; a condition that tells them apart may be missing. Equal values may be shown once. Numbers after ± are expanded uncertainties.

O=C(C(F)(F)C(F)(F)F)C(F)(C(F)(F)F)C(F)(F)F [dodecafluoro-2-methylpentan-3-one]
Conditions | thermal conductivity
402.37 K, 306 kPa, Gas, hot wire | 0.0201 ± 0.00095 W/m/K
402.38 K, 27 kPa, Gas, hot wire | 0.01858 ± 0.00088 W/m/K
402.38 K, 306 kPa, Gas, hot wire | 0.02016 ± 0.00095 W/m/K
402.44 K, 159 kPa, Gas, hot wire | 0.01917 ± 0.0009 W/m/K and 0.01915 ± 0.0009 W/m/K
402.45 K, 445 kPa, Gas, hot wire | 0.02064 ± 0.00097 W/m/K
402.47 K, 444 kPa, Gas, hot wire | 0.02039 ± 0.00096 W/m/K
402.49 K, 306 kPa, Gas, hot wire | 0.02022 ± 0.00095 W/m/K and 0.02027 ± 0.00095 W/m/K
402.5 K, 27 kPa, Gas, hot wire | 0.01866 ± 0.00088 W/m/K and 0.01864 ± 0.00088 W/m/K
402.57 K, 160 kPa, Gas, hot wire | 0.01916 ± 0.0009 W/m/K
402.57 K, 161 kPa, Gas, hot wire | 0.0192 ± 0.0009 W/m/K
402.57 K, 444 kPa, Gas, hot wire | 0.02075 ± 0.00098 W/m/K
402.59 K, 443 kPa, Gas, hot wire | 0.02053 ± 0.00097 W/m/K
402.62 K, 305 kPa, Gas, hot wire | 0.02031 ± 0.00096 W/m/K and 0.02029 ± 0.00096 W/m/K
402.63 K, 27 kPa, Gas, hot wire | 0.01867 ± 0.00088 W/m/K
402.64 K, 27 kPa, Gas, hot wire | 0.01862 ± 0.00088 W/m/K
402.68 K, 835 kPa, Gas, transient hot wire | 0.02013 ± 0.0012 W/m/K
402.69 K, 441 kPa, Gas, hot wire | 0.02089 ± 0.00099 W/m/K
402.69 K, 442 kPa, Gas, hot wire | 0.02089 ± 0.00099 W/m/K
402.69 K, 835 kPa, Gas, transient hot wire | 0.02007 ± 0.0012 W/m/K
402.71 K, 162 kPa, Gas, hot wire | 0.01917 ± 0.0009 W/m/K
402.71 K, 163 kPa, Gas, hot wire | 0.01926 ± 0.00091 W/m/K
402.74 K, 305 kPa, Gas, hot wire | 0.02049 ± 0.00096 W/m/K
402.74 K, 747 kPa, Gas, transient hot wire | 0.01986 ± 0.0012 W/m/K
402.74 K, 748 kPa, Gas, transient hot wire | 0.01986 ± 0.0012 W/m/K
402.75 K, 305 kPa, Gas, hot wire | 0.02035 ± 0.00096 W/m/K
402.78 K, 27 kPa, Gas, hot wire | 0.01867 ± 0.00088 W/m/K and 0.01858 ± 0.00088 W/m/K
402.81 K, 608 kPa, Gas, transient hot wire | 0.01959 ± 0.0012 W/m/K
402.81 K, 609 kPa, Gas, transient hot wire | 0.01955 ± 0.0012 W/m/K
402.85 K, 164 kPa, Gas, hot wire | 0.01925 ± 0.00091 W/m/K and 0.01927 ± 0.00091 W/m/K
402.87 K, 447 kPa, Gas, transient hot wire | 0.01955 ± 0.0012 W/m/K
402.87 K, 448 kPa, Gas, transient hot wire | 0.01962 ± 0.0012 W/m/K
402.87 K, 836 kPa, Gas, transient hot wire | 0.02025 ± 0.0013 W/m/K
402.88 K, 836 kPa, Gas, transient hot wire | 0.0203 ± 0.0013 W/m/K
402.91 K, 746 kPa, Gas, transient hot wire | 0.01994 ± 0.0012 W/m/K
402.92 K, 307 kPa, Gas, transient hot wire | 0.01967 ± 0.0012 W/m/K
402.92 K, 746 kPa, Gas, transient hot wire | 0.01998 ± 0.0012 W/m/K
402.93 K, 27 kPa, Gas, hot wire | 0.01857 ± 0.00088 W/m/K and 0.01866 ± 0.00088 W/m/K
403 K, 607 kPa, Gas, transient hot wire | 0.01962 ± 0.0012 W/m/K and 0.01975 ± 0.0012 W/m/K
403.05 K, 836 kPa, Gas, transient hot wire | 0.02051 ± 0.0013 W/m/K
403.06 K, 836 kPa, Gas, transient hot wire | 0.02049 ± 0.0013 W/m/K
403.07 K, 447 kPa, Gas, transient hot wire | 0.01962 ± 0.0012 W/m/K
403.08 K, 446 kPa, Gas, transient hot wire | 0.01959 ± 0.0012 W/m/K
403.1 K, 744 kPa, Gas, transient hot wire | 0.02004 ± 0.0012 W/m/K
403.1 K, 745 kPa, Gas, transient hot wire | 0.02014 ± 0.0012 W/m/K
403.12 K, 306 kPa, Gas, transient hot wire | 0.01974 ± 0.0012 W/m/K
403.12 K, 307 kPa, Gas, transient hot wire | 0.01974 ± 0.0012 W/m/K
403.2 K, 605 kPa, Gas, transient hot wire | 0.01971 ± 0.0012 W/m/K
403.21 K, 606 kPa, Gas, transient hot wire | 0.01981 ± 0.0012 W/m/K
403.25 K, 836 kPa, Gas, transient hot wire | 0.02071 ± 0.0013 W/m/K
403.25 K, 837 kPa, Gas, transient hot wire | 0.02072 ± 0.0013 W/m/K
403.28 K, 445 kPa, Gas, transient hot wire | 0.01961 ± 0.0012 W/m/K
403.3 K, 445 kPa, Gas, transient hot wire | 0.01958 ± 0.0012 W/m/K
403.33 K, 744 kPa, Gas, transient hot wire | 0.02022 ± 0.0013 W/m/K
403.34 K, 306 kPa, Gas, transient hot wire | 0.01976 ± 0.0012 W/m/K
403.34 K, 743 kPa, Gas, transient hot wire | 0.02024 ± 0.0013 W/m/K
403.35 K, 306 kPa, Gas, transient hot wire | 0.01972 ± 0.0012 W/m/K
403.41 K, 605 kPa, Gas, transient hot wire | 0.01984 ± 0.0012 W/m/K
403.42 K, 604 kPa, Gas, transient hot wire | 0.01984 ± 0.0012 W/m/K
403.51 K, 444 kPa, Gas, transient hot wire | 0.01967 ± 0.0012 W/m/K
403.53 K, 742 kPa, Gas, transient hot wire | 0.02037 ± 0.0013 W/m/K and 0.02041 ± 0.0013 W/m/K
403.54 K, 443 kPa, Gas, transient hot wire | 0.01965 ± 0.0012 W/m/K
403.57 K, 305 kPa, Gas, transient hot wire | 0.01974 ± 0.0012 W/m/K and 0.01978 ± 0.0012 W/m/K
403.63 K, 603 kPa, Gas, transient hot wire | 0.01991 ± 0.0012 W/m/K
403.64 K, 602 kPa, Gas, transient hot wire | 0.01991 ± 0.0012 W/m/K
403.75 K, 442 kPa, Gas, transient hot wire | 0.01972 ± 0.0012 W/m/K
403.76 K, 442 kPa, Gas, transient hot wire | 0.01971 ± 0.0012 W/m/K
403.81 K, 305 kPa, Gas, transient hot wire | 0.01987 ± 0.0012 W/m/K and 0.01988 ± 0.0012 W/m/K
416.35 K, 1171 kPa, Liquid, transient hot wire | 0.03902 ± 0.00082 W/m/K and 0.03885 ± 0.00082 W/m/K
416.51 K, 1171 kPa, Liquid, transient hot wire | 0.03892 ± 0.00082 W/m/K and 0.03904 ± 0.00082 W/m/K
416.67 K, 1170 kPa, Liquid, transient hot wire | 0.03901 ± 0.00082 W/m/K
416.68 K, 1170 kPa, Liquid, transient hot wire | 0.0389 ± 0.00082 W/m/K
416.69 K, 596 kPa, Gas, hot wire | 0.0223 ± 0.001 W/m/K
416.7 K, 595 kPa, Gas, hot wire | 0.02228 ± 0.0014 W/m/K
416.78 K, 2205 kPa, Liquid, transient hot wire | 0.04062 ± 0.00085 W/m/K
416.79 K, 2206 kPa, Liquid, transient hot wire | 0.04049 ± 0.00085 W/m/K
416.8 K, 24840 kPa, Liquid, transient hot wire | 0.05568 ± 0.0011 W/m/K
416.81 K, 24844 kPa, Liquid, transient hot wire | 0.05562 ± 0.0011 W/m/K
416.81 K, 50957 kPa, Liquid, transient hot wire | 0.06585 ± 0.0014 W/m/K
416.82 K, 50950 kPa, Liquid, transient hot wire | 0.06577 ± 0.0014 W/m/K
416.86 K, 1170 kPa, Liquid, transient hot wire | 0.03904 ± 0.00082 W/m/K
416.87 K, 1131 kPa, Gas, transient hot wire | 0.02258 ± 0.00075 W/m/K
416.87 K, 1170 kPa, Liquid, transient hot wire | 0.03905 ± 0.00082 W/m/K
416.88 K, 16295 kPa, Liquid, transient hot wire | 0.0514 ± 0.0011 W/m/K
416.89 K, 590 kPa, Gas, hot wire | 0.02234 ± 0.0014 W/m/K
